Measured values published in publication PMC4215638, “J-147 a Novel Hydrazide Lead Compound to Treat Neurodegeneration: CeeTox™ Safety and Genotoxicity Analysis” (Journal of neurology & neurophysiology, 2013).

Test: Microsomal metabolic stability
Type: in vitro ADME
Settings: 30 minutes at 37°C, rat microsomes
Description: Metabolic stability was conducted using pooled microsomes from non-induced male Sprague-Dawley rats. J-147 was incubated for 30 minutes at 37°C at concentrations of 1 μM. Subsequent HPLC analysis using a Waters Alliance 2795 in combination with a Waters Quattro Premier mass spectrometer measured disappearance of the parent molecule. The compounds were run on a Waters X-BridgeC18 (186003021) 50 × 2.1 mm column with 3.5 micron particle packing at a flow rate of 1 ml/min and with the temperature maintained at 50°C. Solvent A was water with 0.1% formic acid. Solvent B was acetonitrile with 0.07% formic acid. The data for 3 replicates are expressed as percent of parent remaining.

Cc1ncc2n1-c1ccc(Cl)cc1C(c1ccccc1F)=NC2 [Midazolam, reference compound]
Metabolism Ranking (1 μM): High (<45=high)
remaining at 0.5 h, 1 μM (male, Sprague-Dawley, pooled microsomes from non-induced rats, percent of parent remaining): 0 to 3%
